Experimental findings from US11976072B2, “Diacylglycerol kinase modulating compounds” (priority 2021, dated 2024) are described below.

Each structure is given as a SMILES string. Like-named read-outs stand apart in the source and are kept apart here.

The subject of assay [1] is Jurkat NFκB-luciferase cells. Description: Jurkat NFκB-Luciferase Assay. As to conditions: Homo sapiens. The class given is cell-based. An outline of the steps:
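Jurkat NFκB-luciferase reporter cells at 1 million cells/ml in RPMI with 10% FBS were added to antibody-coated, compound-containing wells. Luciferase activity read by One-Glo Ex luminescence 7 minutes after reagent addition.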

The target of assay [2] is human DGKα (Homo sapiens, UniProt P23743). Description: DGKα Biochemical Activity Assay (ADP-Glo).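 Note: luminescent detection of ADP produced as DGKα phosphorylates DAG to phosphatidic acid, IC50 from four-parameter nonlinear curve fit.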 The following applies: recombinant DGKα 1 nM, 100 μM ATP, 18:1 DAG/POPS/octylglucoside micelles, 1 hour at 25° C.; geometric mean; read-out: HTBS DGKa 1X ATP KM IC50. (ADP-Glo turns the ADP formed in a reaction into a luminescent signal.)
The mark [3] stands for this setting: Jurkat NFκB-luciferase cells activated with anti-CD3 antibody (OKT3), 2.5 hrs at 37° C., geometric mean, read-out: DGK NFKb Luciferase EC50.
[4] abbreviates: Jurkat, […], read-out: DGK NFKb Luciferase EC50 (nM).

Sequence of human DGKα (P23743 whole entry): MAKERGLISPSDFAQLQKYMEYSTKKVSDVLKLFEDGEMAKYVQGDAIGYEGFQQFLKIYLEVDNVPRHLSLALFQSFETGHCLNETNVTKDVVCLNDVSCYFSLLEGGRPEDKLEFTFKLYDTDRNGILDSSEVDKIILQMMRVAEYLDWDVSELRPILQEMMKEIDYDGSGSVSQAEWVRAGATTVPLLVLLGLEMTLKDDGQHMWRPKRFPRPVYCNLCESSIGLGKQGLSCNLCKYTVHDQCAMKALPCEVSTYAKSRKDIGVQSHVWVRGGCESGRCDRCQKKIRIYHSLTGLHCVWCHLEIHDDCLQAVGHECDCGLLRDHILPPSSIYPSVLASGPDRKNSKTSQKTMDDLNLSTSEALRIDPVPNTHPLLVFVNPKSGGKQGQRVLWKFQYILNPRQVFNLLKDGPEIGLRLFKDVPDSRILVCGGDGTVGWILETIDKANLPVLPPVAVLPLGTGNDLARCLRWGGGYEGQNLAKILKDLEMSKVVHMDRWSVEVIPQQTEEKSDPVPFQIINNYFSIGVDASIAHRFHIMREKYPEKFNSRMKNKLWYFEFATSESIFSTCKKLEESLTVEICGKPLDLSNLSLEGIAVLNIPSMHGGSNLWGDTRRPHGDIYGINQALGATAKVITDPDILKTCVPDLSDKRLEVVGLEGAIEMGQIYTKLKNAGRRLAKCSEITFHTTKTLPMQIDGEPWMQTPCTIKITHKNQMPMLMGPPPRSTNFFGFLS

Take `Cc1nnc2nc(N3CCOCc4c(C#CC5(NC(=O)C6(C(F)(F)F)CC6)CC5)cccc43)c3c(F)cccc3n12` [Example 145, N-(1-((1-(6-fluoro-1-methyl-[1,2,4]triazolo[4,3-a]quinazolin-5-yl)-1,2,3,5-tetrahydrobenzo[e][1,4]oxazepin-6-yl)ethynyl)cyclopropyl)-1-(trifluoromethyl) cyclopropane-1-carboxamide]: the EC50 in assay [1] (setting [3]) turned out to be 1.21 nM. The IC50 in assay [2] came to 6.87 nM.
For the compound `Cc1nnc2nc(N3CCOCc4c(C#CC(C)(C)NC(=O)OC(C)C(F)(F)F)cccc43)c3c(F)cccc3n12` (centres unmarked) [Example 146, 1,1,1-trifluoropropan-2-yl (4-(1-(6-fluoro-1-methyl-[1,2,4]triazolo[4,3-a]quinazolin-5-yl)-1,2,3,5-tetrahydrobenzo[e][1,4]oxazepin-6-yl)-2-methylbut-3-yn-2-yl)carbamate], the EC50 in assay [1] (setting [3]) was 20.5 nM. In addition, in assay [2], the IC50 stood at 3.54 nM.
In the same order, the values of `Cc1nnc2nc(N3CCOCc4c(C#CC(C)(C)NC(=O)C5(C(F)(F)F)CC5)cccc43)c3c(F)cccc3n12` [Example 147, N-(4-(1-(6-fluoro-1-methyl-[1,2,4]triazolo[4,3-a]quinazolin-5-yl)-1,2,3,5-tetrahydrobenzo[e][1,4]oxazepin-6-yl)-2-methylbut-3-yn-2-yl)-1-(trifluoromethyl) cyclopropane-1-carboxamide] are 7.74 nM and 3.16 nM.
For `Cc1nnc2nc(N3CCOCc4c(C#CC(C)(C)NC(=O)OC(C)(C)C)cccc43)c3c(F)cccc3n12` [Example 148, tert-butyl (4-(1-(6-fluoro-1-methyl-[1,2,4]triazolo[4,3-a]quinazolin-5-yl)-1,2,3,5-tetrahydrobenzo[e][1,4]oxazepin-6-yl)-2-methylbut-3-yn-2-yl)carbamate] the same measures were 6.03 nM and 4.36 nM.
In the same order, the values of `Cc1nnc2nc(N3CCCc4c(C#CC(C)(C)NC(=O)OC(C)C(F)(F)F)cccc43)c3c(F)cccc3n12` (centres unmarked) [Example 149, 1,1,1-trifluoropropan-2-yl (4-(1-(6-fluoro-1-methyl-[1,2,4]triazolo[4,3-a]quinazolin-5-yl)-1,2,3,4-tetrahydroquinolin-5-yl)-2-methylbut-3-yn-2-yl)carbamate] are 5.38 nM and 14.1 nM.
As for `Cc1nnc2nc(N3CCCc4c(C#CC(C)(C)NC(=O)OC(C)(C)C)cccc43)c3c(F)cccc3n12` [Example 150, Tert-Butyl (4-(1-(6-fluoro-1-methyl-[1,2,4]triazolo[4,3-a]quinazolin-5-yl)-1,2,3,4-tetrahydroquinolin-5-yl)-2-methylbut-3-yn-2-yl)carbamate], in assay [1] (setting [3]), the EC50 was 2.48 nM. For the same compound, the IC50 in assay [2] worked out at 11.5 nM.
In the same order, the values of `Cc1nnc2nc(N3CCCc4c(C#CC(C)(C)NC(=O)C5(C(F)(F)F)CC5)cccc43)c3c(F)cccc3n12` [Example 151, N-(4-(1-(6-fluoro-1-methyl-[1,2,4]triazolo[4,3-a]quinazolin-5-yl)-1,2,3,4-tetrahydroquinolin-5-yl)-2-methylbut-3-yn-2-yl)-1-(trifluoromethyl)cyclopropane-1-carboxamide] are 3.59 nM and 2.41 nM.
For `Cc1nnc2nc(N3CCCc4c(C#CC(C)(C)O)cc(F)cc43)c3c(F)cccc3n12` [Example 152, 4-(7-fluoro-1-(6-fluoro-1-methyl-[1,2,4]triazolo[4,3-a]quinazolin-5-yl)-1,2,3,4-tetrahydroquinolin-5-yl)-2-methylbut-3-yn-2-ol] the same measures were 53.9 nM and 34.6 nM.
As for `Cc1nnc2nc(N3CCOCc4c(N5CC6CC(C5)C6(F)F)cccc43)c3c(F)cccc3n12` [Example 153], the EC50 in assay [1] (setting [3]) was found to be 3.98 nM. Also, in assay [2], the IC50 was determined as 82.8 nM.
On to `Cc1nnc2nc(N3CCOCc4c(N5CCC(C)(C#N)CC5)cccc43)c3c(F)cccc3n12` [Example 154, 1-[1-(6-fluoro-1-methyl-[1,2,4]triazolo[4,3-a]quinazolin-5-yl)-3,5-dihydro-2H-4,1-benzoxazepin-6-yl]-4-methyl-piperidine-4-carbonitrile], for which the EC50 in assay [1] (setting [3]) came to 6.33 nM. Also, the IC50 in assay [2] is 7.42 nM.
For `Cc1nnc2nc(N3CCCc4c(N5CCC(C)(C#N)CC5)cccc43)c3c(F)cccc3n12` [Example 155, 1-[1-(6-fluoro-1-methyl-[1,2,4]triazolo[4,3-a]quinazolin-5-yl)-3,4-dihydro-2H-quinolin-5-yl]-4-methyl-piperidine-4-carbonitrile] the same measures were 5.13 nM and 25.6 nM.
For `Cc1nnc2nc(N3CCCc4c(N5CCC(C)(F)CC5)cccc43)c3c(F)cccc3n12` [Example 156, 6-fluoro-5-[5-(4-fluoro-4-methyl-1-piperidyl)-3,4-dihydro-2H-quinolin-1-yl]-1-methyl-[1,2,4]triazolo[4,3-a]quinazoline] the same measures were 1.02 nM and 40.2 nM.
For `Cc1nnc2nc(N3CCCc4c(N5CCC(F)(F)CC5)cccc43)c3c(F)cccc3n12` [Example 157, 5-[5-(4,4-difluoro-1-piperidyl)-3,4-dihydro-2H-quinolin-1-yl]-6-fluoro-1-methyl-[1,2,4]triazolo[4,3-a]quinazoline] the same measures were 8.23 nM and 672 nM.
In the case of `Cc1nnc2nc(N3CCCc4c(N5CCN(C(=O)C(F)F)CC5)cccc43)c3c(F)cccc3n12` [Example 158, 2,2-difluoro-1-[4-[1-(6-fluoro-1-methyl-[1,2,4]triazolo[4,3-a]quinazolin-5-yl)-3,4-dihydro-2H-quinolin-5-yl]piperazin-1-yl]ethanone], the EC50 in assay [1] (setting [3]) stood at 49.3 nM. In addition, in assay [2], the IC50 is 281 nM.
In the same order, the values of `Cc1nnc2nc(N3CCCc4c(N5CCN(C(=O)C(F)(F)F)CC5)cccc43)c3c(F)cccc3n12` [Example 159] are 16.5 nM and 333 nM.
In the same order, the values of `Cc1nnc2nc(N3CCCc4c(N5CCN(S(C)(=O)=O)CC5)cccc43)c3c(F)cccc3n12` [Example 160, 6-fluoro-1-methyl-5-[5-(4-methylsulfonylpiperazin-1-yl)-3,4-dihydro-2H-quinolin-1-yl]-[1,2,4]triazolo[4,3-a]quinazoline] are 28.6 nM and 74.9 nM.
As for `Cc1nnc2nc(N3CCCc4c(N5CCN(C(=O)OC(C)(C)C)CC5)cccc43)c3c(F)cccc3n12` [Example 161, tert-butyl 4-[1-(6-fluoro-1-methyl-[1,2,4]triazolo[4,3-a]quinazolin-5-yl)-3,4-dihydro-2H-quinolin-5-yl]piperazine-1-carboxylate], in assay [1] (setting [4]), the EC50 came out at 5.49 nM. Besides, the IC50 in assay [2] turned out to be 87.1 nM.
Take `Cc1nnc2nc(N3CCN(C)Cc4c(C#CC(C)(C)C(F)(F)F)cccc43)c3c(F)cccc3n12` [Example 162, 6-fluoro-1-methyl-5-[4-methyl-6-(4,4,4-trifluoro-3,3-dimethyl-but-1-ynyl)-3,5-dihydro-2H-1,4-benzodiazepin-1-yl]-[1,2,4]triazolo[4,3-a]quinazoline]: the EC50 in assay [1] (setting [3]) worked out at 3.33 nM. Besides, the IC50 in assay [2] stood at 15 nM.
In the case of `Cc1nnc2nc(N3CCN(C)Cc4c(C#CC5(C(F)(F)F)CC5)cccc43)c3c(F)cccc3n12` [Example 164, 6-fluoro-1-methyl-5-[4-methyl-6-[2-[1-(trifluoromethyl)cyclopropyl]ethynyl]-3,5-dihydro-2H-1,4-benzodiazepin-1-yl]-[1,2,4]triazolo[4,3-a]quinazoline], the EC50 in assay [1] (setting [3]) stood at 3.63 nM. The IC50 in assay [2] turned out to be 13 nM.
In the case of `Cc1nnc2nc(N3CCN(C)Cc4c(C#CC5(C)CC5)cccc43)c3c(F)cccc3n12` [Example 165, 6-fluoro-1-methyl-5-[4-methyl-6-[2-(1-methylcyclopropyl)ethynyl]-3,5-dihydro-2H-1,4-benzodiazepin-1-yl]-[1,2,4]triazolo[4,3-a]quinazoline], the EC50 in assay [1] (setting [3]) turned out to be 5.35 nM. For the same compound, the IC50 in assay [2] was 7.6 nM.
For `Cc1nnc2nc(N3CCN(C)Cc4c(C#CC5(C(C)(F)F)CC5)cccc43)c3c(F)cccc3n12` [Example 166, 5-[6-[2-[1-(1,1-difluoroethyl)cyclopropyl]ethynyl]-4-methyl-3,5-dihydro-2H-1,4-benzodiazepin-1-yl]-6-fluoro-1-methyl-[1,2,4]triazolo[4,3-a]quinazoline], in assay [1] (setting [3]), the EC50 was 15.8 nM. Further, the IC50 in assay [2] turned out to be 17.4 nM.
On to `Cc1nnc2nc(N3CCCOc4c(C#CC5CC5)cncc43)c3c(F)c(F)ccc3n12` [Example 167, 9-(2-cyclopropylethynyl)-5-(6,7-difluoro-1-methyl-[1,2,4]triazolo[4,3-a]quinazolin-5-yl)-3,4-dihydro-2H-pyrido[4,3-b][1,4]oxazepine], for which the EC50 in assay [1] (setting [3]) came out at 5.84 nM. For the same compound, the IC50 in assay [2] was determined as 18 nM.
On to `Cc1nnc2nc(N3CCN(C)Cc4c(C#CC(C)(C)C(F)(F)F)cccc43)c3c(F)c(F)ccc3n12` [Example 168, 6,7-difluoro-1-methyl-5-[4-methyl-6-(4,4,4-trifluoro-3,3-dimethyl-but-1-ynyl)-3,5-dihydro-2H-1,4-benzodiazepin-1-yl]-[1,2,4]triazolo[4,3-a]quinazoline], for which, in assay [1] (setting [3]), the EC50 is 5.41 nM. Further, the IC50 in assay [2] was found to be 10.4 nM.
With `Cc1nnc2nc(N3CCN(C)Cc4c(C#CC5(C(F)(F)F)CC5)cccc43)c3c(F)c(F)ccc3n12` [Example 169, 6,7-difluoro-1-methyl-5-[4-methyl-6-[2-[1-(trifluoromethyl)cyclopropyl]ethynyl]-3,5-dihydro-2H-1,4-benzodiazepin-1-yl]-[1,2,4]triazolo[4,3-a]quinazoline], the EC50 in assay [1] (setting [3]) is 4.39 nM. In addition, the IC50 in assay [2] was determined as 7.3 nM.
As for `Cc1nnc2nc(N3CCN(C)Cc4c(C#CC(C)(C)O)cccc43)c3cc(F)ccc3n12` [Example 170, 4-[1-(7-fluoro-1-methyl-[1,2,4]triazolo[4,3-a]quinazolin-5-yl)-4-methyl-3,5-dihydro-2H-1,4-benzodiazepin-6-yl]-2-methyl-but-3-yn-2-ol], the EC50 in assay [1] (setting [4]) was found to be 358 nM. The IC50 in assay [2] came to 51 nM.

The EC50 is the midpoint of the concentration-response curve. One may read the IC50 as the concentration at which inhibition is half-maximal.
